Reference: patent publication US12329158B2, “Large-scale methods of uniformly coating packaging surfaces with a volatile antimicrobial to preserve food freshness” (AGROFRESH INC., priority 2013, dated 2025)
In brackets after ≈: the same amount, converted by molar mass.

Legend:
Botrytis cinerea [1] = test: Volatile release from different materials, MIC (Example 13); assay type: cell-based
Description: An in vitro assay is used to evaluate the ability of Compound A to volatilize from different materials and control fungal growth. […] A 3-mL volume of full-strength Potato Dextrose Agar (PDA) is added to each well. […] Plates are inoculated immediately prior to volatile fungicide treatment. The various materials are placed, in duplicate, on the underside of a polyethylene PCR plate sealing film. […] The acetone is permitted to evaporate for five minutes. The headspace around the Botrytis cinerea inoculum is then sealed inside the well by the film with the adhering disk of material containing the fungicide. Plates are inverted, placed over the treated disks and sealed to prevent any of the chemical from flaking from the disk and falling onto the inoculated agar. After three days of storage at 23° C., the cultures are evaluated for percent growth relative to control based on measurement of fungal colony diameter.

Botrytis cinerea [2] = test: Painting on base, lid or base and lid of clamshells; strawberries (Example 6); assay type: in vivo
Description: Five milligrams of Compound A was dissolved in 1 ml of ethanol prior to being uniformly administered to the interior of the clamshell by painting or spraying, and then dried for 5 minutes. After coating the clamshells with Compound A using various application techniques (i.e., sublimation, spraying, or painting), eight ethanol-washed strawberries were placed in the clamshell with stem end facing downwards. Each strawberry fruit was wounded using a T15 screwdriver tip to a uniform depth of eight mm (8 mm). […] Uninoculated strawberries were removed from their commercial package, and directly transferred into treated clamshells without any washing or inoculation steps.
Treated clamshells lids were closed, and then placed at 1° C. for an initial time period of 5 days. Clamshells were then removed from low temperature, and held for a second time period of 6 days at room temperature where the point of inoculation on the strawberry fruits was assessed for indication of disease incidence reported as a percentage (%). Severity of disease incidence was also reported.
This in vivo assay was used to evaluate the ability of Compound A to volatilize from different locations of a clamshell (i.e., the base and/or the lid of the clamshell) in order to control or inhibit fruit infection by pathogenic microorganism, Botrytis cinerea. This experiment was conducted exactly as described in Example 1, with a few exceptions. Compound A was administered to the clamshell by painting only. 5 mg of Compound A was painted onto the surface of the base of the clamshell or the lid of the clamshell (i.e., 5 mg/clamshell treatment rate). 2.5 mg of Compound A was painted onto the base and the lid of the clamshell (for a total of 5 mg/clamshell treatment rate). The clamshell was then permitted to dry for 5 minutes. Strawberries were inoculated with Botrytis cinerea, placed within the clamshell for an initial time period of 5 days, and assessed for disease incidence and severity over a second time period of 7 days as described in Example 1.

Botrytis cinerea [3] = test: Gray mold on strawberry, contact assay (Example 23); assay type: in vivo
Description: Eight strawberries (per repetition, in triplicate) are placed in an industry standard 1-lb PET clamshell with the stem-end facing down.
Contact Assay: Compound A is dissolved in 85% methanol to achieve a final concentration of 250, 50, 10, or 2 mg/L. A 250 mL solution of each concentration is used to dip eight inoculated strawberry fruit for one-minute, performed in triplicate per rate. The dipped fruits are then placed back into the clamshells, which are then placed in a secondary container and incubated at 1° C. for 5 days. After incubation, fruits are evaluated for disease severity (scale 0 to 4, with ≤1 indicating marketable fruit and 4 indicating ≥50% of fruit surface covered by pathogen) up to 4 days at 21° C.

[4] = Inoculated Fruit, painted on Base and Lid, 2.5/2.5 mg, Day 0
[5] = Inoculated Fruit, painted on Base and Lid, 2.5/2.5 mg, Day 1
[6] = Inoculated Fruit, painted on Base and Lid, 2.5/2.5 mg, Day 2
[7] = Inoculated Fruit, painted on Base and Lid, 2.5/2.5 mg, Day 3
[8] = Inoculated Fruit, painted on Base and Lid, 2.5/2.5 mg, Day 4
[9] = Inoculated Fruit, painted on Base and Lid, 2.5/2.5 mg, Day 5
[10] = Inoculated Fruit, painted on Base and Lid, 2.5/2.5 mg, Day 6
[11] = Inoculated Fruit, painted on Base and Lid, 2.5/2.5 mg, Day 7
[12] = Inoculated Fruit, painted on Base, 5 mg, Day 7
[13] = Uninoculated Fruit, painted on Base, 5 mg, Day 0
[14] = Uninoculated Fruit, painted on Base, 5 mg, Day 1
[15] = Uninoculated Fruit, painted on Base, 5 mg, Day 2
[16] = Uninoculated Fruit, painted on Base, 5 mg, Day 3
[17] = Uninoculated Fruit, painted on Base, 5 mg, Day 4

Compound: OB1OCc2cc(F)ccc21 [Compound A, 5-fluoro-1,3-dihydro-1-hydroxy-2,1-benzoxaborole]
- MIC (Botrytis cinerea [1]; volatile release from Acrylic-Coated Fiberglass): 0.56 µg/mL (≈ 3.69 µM)
- MIC (Botrytis cinerea [1]; volatile release from Aramid): 2.2 µg/mL (≈ 14.5 µM)
- MIC (Botrytis cinerea [1]; volatile release from Aramid and Fiberglass): 0.56 µg/mL (≈ 3.69 µM)
- MIC (Botrytis cinerea [1]; volatile release from Cardboard): 2.2 µg/mL (≈ 14.5 µM)
- MIC (Botrytis cinerea [1]; volatile release from Cellulose): 0.56 µg/mL (≈ 3.69 µM)
- MIC (Botrytis cinerea [1]; volatile release from Fiberglass): 0.56 µg/mL (≈ 3.69 µM)
- MIC (Botrytis cinerea [1]; volatile release from PTFE): 1.1 µg/mL (≈ 7.24 µM)
- MIC (Botrytis cinerea [1]; volatile release from PTFE-Coated Fiberglass): 0.56 µg/mL (≈ 3.69 µM)
- MIC (Botrytis cinerea [1]; volatile release from Polyethylene PCR Film): 0.28 µg/mL (≈ 1.84 µM)
- MIC (Botrytis cinerea [1]; volatile release from Silica): 0.56 µg/mL (≈ 3.69 µM)
- MIC (Botrytis cinerea [1]; volatile release from Silicone-Coated Fiberglass): 0.56 µg/mL (≈ 3.69 µM)
- MIC (Botrytis cinerea [1]; volatile release from Vinyl-Coated Polyester): 0.56 µg/mL (≈ 3.69 µM)
- Gray Mold Incidence (%) (Botrytis cinerea [2]; [4]): 0.0%
- Gray Mold Severity (0-4) (Botrytis cinerea [2]; [4]): 0.0
- Gray Mold Incidence (%) (Botrytis cinerea [2]; [5]): 0.0%
- Gray Mold Severity (0-4) (Botrytis cinerea [2]; [5]): 0.0
- Gray Mold Incidence (%) (Botrytis cinerea [2]; [6]): 0.0%
- Gray Mold Severity (0-4) (Botrytis cinerea [2]; [6]): 0.0
- Gray Mold Incidence (%) (Botrytis cinerea [2]; [7]): 0.0%
- Gray Mold Severity (0-4) (Botrytis cinerea [2]; [7]): 0.0
- Gray Mold Incidence (%) (Botrytis cinerea [2]; [8]): 0.0%
- Gray Mold Severity (0-4) (Botrytis cinerea [2]; [8]): 0.0
- Gray Mold Incidence (%) (Botrytis cinerea [2]; [9]): 0.0%
- Gray Mold Severity (0-4) (Botrytis cinerea [2]; [9]): 0.0
- Gray Mold Incidence (%) (Botrytis cinerea [2]; [10]): 0.0%
- Gray Mold Severity (0-4) (Botrytis cinerea [2]; [10]): 0.0
- Gray Mold Incidence (%) (Botrytis cinerea [2]; [11]): 0.0%
- Gray Mold Severity (0-4) (Botrytis cinerea [2]; [11]): 0.0
- Gray Mold Severity (0-4) (Botrytis cinerea [2]; Inoculated Fruit, painted on Base, 5 mg, Day 0): 0.0
- Gray Mold Severity (0-4) (Botrytis cinerea [2]; Inoculated Fruit, painted on Base, 5 mg, Day 1): 0.0
- Gray Mold Severity (0-4) (Botrytis cinerea [2]; Inoculated Fruit, painted on Base, 5 mg, Day 2): 0.1
- Gray Mold Severity (0-4) (Botrytis cinerea [2]; Inoculated Fruit, painted on Base, 5 mg, Day 3): 0.1
- Gray Mold Severity (0-4) (Botrytis cinerea [2]; Inoculated Fruit, painted on Base, 5 mg, Day 4): 0.0
- Gray Mold Severity (0-4) (Botrytis cinerea [2]; Inoculated Fruit, painted on Base, 5 mg, Day 5): 0.0
- Gray Mold Severity (0-4) (Botrytis cinerea [2]; Inoculated Fruit, painted on Base, 5 mg, Day 6): 0.2
- Gray Mold Incidence (%) (Botrytis cinerea [2]; [12]): 18.8%
- Gray Mold Severity (0-4) (Botrytis cinerea [2]; [12]): 0.3
- Gray Mold Severity (0-4) (Botrytis cinerea [2]; Inoculated Fruit, painted on Lid, 5 mg, Day 0): 0.0
- Gray Mold Severity (0-4) (Botrytis cinerea [2]; Inoculated Fruit, painted on Lid, 5 mg, Day 1): 0.0
- Gray Mold Severity (0-4) (Botrytis cinerea [2]; Inoculated Fruit, painted on Lid, 5 mg, Day 2): 0.0
- Gray Mold Severity (0-4) (Botrytis cinerea [2]; Inoculated Fruit, painted on Lid, 5 mg, Day 3): 0.0
- Gray Mold Severity (0-4) (Botrytis cinerea [2]; Inoculated Fruit, painted on Lid, 5 mg, Day 4): 0.0
- Gray Mold Severity (0-4) (Botrytis cinerea [2]; Inoculated Fruit, painted on Lid, 5 mg, Day 5): 0.0
- Gray Mold Severity (0-4) (Botrytis cinerea [2]; Inoculated Fruit, painted on Lid, 5 mg, Day 6): 0.0
- Gray Mold Severity (0-4) (Botrytis cinerea [2]; Inoculated Fruit, painted on Lid, 5 mg, Day 7): 0.0
- Gray Mold Severity (0-4) (Botrytis cinerea [2]; Uninoculated Fruit, painted on Base and Lid, 2.5/2.5 mg, Day 0): 0.0
- Gray Mold Severity (0-4) (Botrytis cinerea [2]; Uninoculated Fruit, painted on Base and Lid, 2.5/2.5 mg, Day 1): 0.0
- Gray Mold Severity (0-4) (Botrytis cinerea [2]; Uninoculated Fruit, painted on Base and Lid, 2.5/2.5 mg, Day 2): 0.0
- Gray Mold Severity (0-4) (Botrytis cinerea [2]; Uninoculated Fruit, painted on Base and Lid, 2.5/2.5 mg, Day 3): 0.2
- Gray Mold Severity (0-4) (Botrytis cinerea [2]; Uninoculated Fruit, painted on Base and Lid, 2.5/2.5 mg, Day 4): 0.8
- Gray Mold Severity (0-4) (Botrytis cinerea [2]; Uninoculated Fruit, painted on Base and Lid, 2.5/2.5 mg, Day 5): 1.5
- Gray Mold Severity (0-4) (Botrytis cinerea [2]; Uninoculated Fruit, painted on Base and Lid, 2.5/2.5 mg, Day 6): 1.5
- Gray Mold Severity (0-4) (Botrytis cinerea [2]; Uninoculated Fruit, painted on Base and Lid, 2.5/2.5 mg, Day 7): 1.5
- Gray Mold Incidence (%) (Botrytis cinerea [2]; [13]): 0.0%
- Gray Mold Severity (0-4) (Botrytis cinerea [2]; [13]): 0.0
- Gray Mold Incidence (%) (Botrytis cinerea [2]; [14]): 0.0%
- Gray Mold Severity (0-4) (Botrytis cinerea [2]; [14]): 0.0
- Gray Mold Incidence (%) (Botrytis cinerea [2]; [15]): 0.0%
- Gray Mold Severity (0-4) (Botrytis cinerea [2]; [15]): 0.0
- Gray Mold Incidence (%) (Botrytis cinerea [2]; [16]): 0.0%
- Gray Mold Severity (0-4) (Botrytis cinerea [2]; [16]): 0.0
- Gray Mold Incidence (%) (Botrytis cinerea [2]; [17]): 2.2%
- Gray Mold Severity (0-4) (Botrytis cinerea [2]; [17]): 0.3
- Gray Mold Severity (0-4) (Botrytis cinerea [2]; Uninoculated Fruit, painted on Base, 5 mg, Day 5): 0.8
- Gray Mold Severity (0-4) (Botrytis cinerea [2]; Uninoculated Fruit, painted on Base, 5 mg, Day 6): 1.2
- Gray Mold Severity (0-4) (Botrytis cinerea [2]; Uninoculated Fruit, painted on Base, 5 mg, Day 7): 1.5
- Gray Mold Severity (0-4) (Botrytis cinerea [2]; Uninoculated Fruit, painted on Lid, 5 mg, Day 0): 0.0
- Gray Mold Severity (0-4) (Botrytis cinerea [2]; Uninoculated Fruit, painted on Lid, 5 mg, Day 1): 0.0
- Gray Mold Severity (0-4) (Botrytis cinerea [2]; Uninoculated Fruit, painted on Lid, 5 mg, Day 2): 0.0
- Gray Mold Severity (0-4) (Botrytis cinerea [2]; Uninoculated Fruit, painted on Lid, 5 mg, Day 3): 0.2
- Gray Mold Severity (0-4) (Botrytis cinerea [2]; Uninoculated Fruit, painted on Lid, 5 mg, Day 4): 1.2
- Gray Mold Severity (0-4) (Botrytis cinerea [2]; Uninoculated Fruit, painted on Lid, 5 mg, Day 5): 2.0
- Gray Mold Severity (0-4) (Botrytis cinerea [2]; Uninoculated Fruit, painted on Lid, 5 mg, Day 6): 2.0
- Gray Mold Severity (0-4) (Botrytis cinerea [2]; Uninoculated Fruit, painted on Lid, 5 mg, Day 7): 2.5
- Disease Severity (0 to 4) (Botrytis cinerea [3]; 2 mg/L, Day 0): 0.0
- Disease Severity (0 to 4) (Botrytis cinerea [3]; 2 mg/L, Day 1): 0.0
- Disease Severity (0 to 4) (Botrytis cinerea [3]; 2 mg/L, Day 2): 0.6
- Disease Severity (0 to 4) (Botrytis cinerea [3]; 2 mg/L, Day 3): 1.1
- Disease Severity (0 to 4) (Botrytis cinerea [3]; 2 mg/L, Day 4): 1.9
- Disease Severity (0 to 4) (Botrytis cinerea [3]; 10 mg/L, Day 0): 0.0
- Disease Severity (0 to 4) (Botrytis cinerea [3]; 10 mg/L, Day 1): 0.0
- Disease Severity (0 to 4) (Botrytis cinerea [3]; 10 mg/L, Day 2): 0.0
- Disease Severity (0 to 4) (Botrytis cinerea [3]; 10 mg/L, Day 3): 0.3
- Disease Severity (0 to 4) (Botrytis cinerea [3]; 10 mg/L, Day 4): 1.0
- Disease Severity (0 to 4) (Botrytis cinerea [3]; 50 mg/L, Day 0): 0.0
- Disease Severity (0 to 4) (Botrytis cinerea [3]; 50 mg/L, Day 1): 0.0
- Disease Severity (0 to 4) (Botrytis cinerea [3]; 50 mg/L, Day 2): 0.0
- Disease Severity (0 to 4) (Botrytis cinerea [3]; 50 mg/L, Day 3): 0.0
- Disease Severity (0 to 4) (Botrytis cinerea [3]; 50 mg/L, Day 4): 0.0
- Disease Severity (0 to 4) (Botrytis cinerea [3]; 250 mg/L, Day 0): 0.0
- Disease Severity (0 to 4) (Botrytis cinerea [3]; 250 mg/L, Day 1): 0.0
- Disease Severity (0 to 4) (Botrytis cinerea [3]; 250 mg/L, Day 2): 0.0
- Disease Severity (0 to 4) (Botrytis cinerea [3]; 250 mg/L, Day 3): 0.0
- Disease Severity (0 to 4) (Botrytis cinerea [3]; 250 mg/L, Day 4): 0.0
